Common to all, as to experiment: ≥ marks a high value that may be exact or a test limit, other limits are often not marked, values filed in µg/mL are converted to µM
The subject of test [1] is Pseudomonas aeruginosa 1570.
Test [2] relates to Pseudomonas aeruginosa 5167.
Test [3] concerns Candida albicans CCARM 14020.
In test [4] the test system is Candida krusei CCARM 14017.
Test [5] relates to Fusarium oxysporum KCTC 16909.
Test [6] deals with Trichophyton rubrum KCTC 6345.
In test [7] the test system is Fusarium solani KCTC 6326.
Test [8] relates to Candida albicans CCARM 14007.
The test system of test [9] is Candida albicans CCARM 14004.
The subject of test [10] is Candida albicans CCARM 14001.
For test [11], the system named is Aspergillus flavus KCTC 6905.
Test [12] deals with Colletotrichum gloeosporioides KCTC 6169.
Test [13] deals with Trichoderma virens KCTC 16924.
In test [14] the test system is Candida albicans KCTC 7270.
For test [15], the system named is Fusarium graminearum KCTC 16656.
The test system of test [16] is Fusarium verticillioides KCTC 6149.
Test [17] concerns Candida parapsilosis CCARM 14016.
Test [18] relates to Trichoderma viride KCTC 16992.
In test [19] the test system is Saccharomyces cerevisiae SZMC 0644.
Test [20] deals with Candida krusei CBS 573.
For test [21], the system named is Candida albicans ATCC 10231.
For test [22], the system named is Candida parapsilosis CBS 604.
The test system of test [23] is Penicillium digitatum PHI-26.
Test [24] relates to Erwinia amylovora PMV 6076.
For test [25], the system named is Xanthomonas vesicatoria 2133-2.
The subject of test [26] is Saccharomyces cerevisiae FY1679.
Test [27] deals with Rhizopus stolonifer CECT 2344.
In test [28] the test system is Aspergillus niger CECT 2694.
The subject of test [29] is Penicillium expansum EPS 26.
Test [30] relates to Candida albicans ATCC 64550.
Test [31] deals with Pseudomonas syringae EPS 94.
Test [32] concerns Fusarium oxysporum f. sp. lycopersici ATCC 201829.
For test [33], the system named is Escherichia coli DH5alpha.
Test [34] has as its system Staphylococcus epidermidis KCTC 1917.
Test [35] deals with Enterococcus faecium ATCC 51559.
Test [36] has as its system Salmonella typhimurium KCTC 1926.
Test [37] deals with Pseudomonas aeruginosa KCTC 1637.
The test system of test [38] is Staphylococcus aureus CCARM 3095.
Test [39] deals with Bacillus subtilis KCTC 3068.
The subject of test [40] is Pseudomonas aeruginosa CCARM 2095.
For test [41], the system named is Pseudomonas aeruginosa CCARM 2109.
Test [42] has as its system Staphylococcus aureus CCARM 3089.
Test [43] concerns Staphylococcus aureus CCARM 3090.
The test system of test [44] is Staphylococcus aureus LAC.
The subject of test [45] is Escherichia coli ATCC 25922.
Test [46] concerns Pseudomonas syringae pv. syringae EPS 94.
Test [47] concerns Xanthomonas arboricola pv. pruni CFBP 5563.
Test [48] has as its system Pseudomonas syringae pv. actinidiae Psa3700.1.1.
Test [49] concerns Xanthomonas campestris pv. Vesicatoria 2133-2.
In test [50] the test system is Xanthomonas fragariae Xf349-9A.

Converted amounts (≈) assume the structure as drawn. Bounds are passed on as bounds.

Consider `CC(C)C[C@H](NC(=O)[C@H](CC(C)C)NC(=O)[C@H](CCCCN)NC(=O)[C@H](CCCCN)NC(=O)[C@H](CC(C)C)NC(=O)[C@H](CC(C)C)NC(=O)[C@H](C)NC(=O)[C@H](CC(C)C)NC(=O)[C@@H](N)Cc1ccccc1)C(N)=O` [FLALLKKLL], for which the MIC – broadly, the lowest concentration found to suppress growth – in test [1] was 10.7 µM (≈ 11.3 µg/mL); in test [2] it was not below 42.8 µM.

As to `NCCCC[C@H](NC(=O)[C@H](CCCCN)NC(=O)[C@H](Cc1cnc[nH]1)NC(=O)[C@H](CCCCN)NC(=O)[C@H](CCCCN)NC(=O)[C@@H](N)Cc1cnc[nH]1)C(N)=O` [HKKHKK], the MIC was not below 64 µM in test [3]; not below 64 µM in test [4]; not below 64 µM in test [5]; not below 64 µM in test [6]; not below 32 µM in [7]; not below 64 µM in test [8]. In addition, the minimal inhibitory concentration (MIC) in [9] is not below 64 µM; in test [10], not below 64 µM; in test [11], not below 64 µM; in [12] it was 16 µM (≈ 12.9 µg/mL); in [13], not below 32 µM; in [14] it was not below 64 µM. Further, the MIC in test [15] was not below 64 µM; in test [16], not below 32 µM; in [17], not below 64 µM; in test [18], not below 64 µM.

In the case of `CC[C@H](C)[C@H](N)C(=O)N[C@@H](C)C(=O)N[C@H](C(=O)N[C@@H](CO)C(=O)N1CCC[C@H]1C(=O)N[C@@H](Cc1ccc(O)cc1)C(=O)N[C@@H](Cc1ccc(O)cc1)C(=O)N[C@@H](C)C(=O)N[C@H]1CSSC[C@@H](C(=O)O)NC(=O)CNC(=O)[C@H](CO)NC(=O)CNC(=O)[C@H](CCCCN)NC(=O)[C@H](CCCCN)NC(=O)[C@H](Cc2cnc[nH]2)NC(=O)[C@H](CCCCN)NC(=O)[C@@H]2CSSC[C@H](NC(=O)[C@H](CC(N)=O)NC1=O)C(=O)N1CCC[C@H]1C(=O)N[C@@H](CC(N)=O)C(=O)N[C@@H](CC(N)=O)C(=O)N2)[C@@H](C)O` [IATSPYYACNCPNNCKHKKGSGC], the MIC in test [19], in [20], in test [21] and in [22] was 20.3 µM (≈ 49.9 µg/mL) throughout.

As for `CC[C@H](C)[C@H](NC(=O)[C@H](CCCCN)NC(=O)[C@H](CCCCN)NC(=O)[C@H](Cc1ccccc1)NC(=O)[C@H](CC(C)C)NC(=O)[C@H](CCCCN)NC(=O)[C@@H](N)CCCCN)C(=O)N[C@@H](CC(C)C)C(=O)N[C@@H](CCCCN)C(=O)N[C@@H](Cc1ccccc1)C(=O)N[C@@H](CC(C)C)C(N)=O` [KKLFKKILKFL], the MIC in test [23] was 4 µM (≈ 5.62 µg/mL); in test [24], 3.16 µM (≈ 4.44 µg/mL); in [25] it was 3.16 µM (≈ 4.44 µg/mL); in test [26] it was 16 µM (≈ 22.5 µg/mL); in [27] it was not below 35.4 µM; in [28], 22.4 µM (≈ 31.4 µg/mL). Besides, the MIC in test [29] is not below 35.4 µM; in [30] it was 25 µM (≈ 35.1 µg/mL); in test [31], 3.16 µM (≈ 4.44 µg/mL); in test [32] it was 0.849 µM (≈ 1.19 µg/mL); in test [33], 4 µM (≈ 5.62 µg/mL).

Regarding `C[C@H](NC(=O)[C@H](CCCCN)NC(=O)[C@H](Cc1ccc(O)cc1)NC(=O)[C@H](Cc1c[nH]c2ccccc12)NC(=O)[C@H](CCCCN)NC(=O)[C@H](CCCCN)NC(=O)[C@H](Cc1ccccc1)NC(=O)[C@H](CCCN=C(N)N)NC(=O)[C@@H](N)CCCCN)C(=O)N[C@@H](Cc1c[nH]c2ccccc12)C(=O)N[C@@H](CCCN=C(N)N)C(=O)N[C@@H](CCCCN)C(=O)N[C@@H](CCCCN)C(=O)N[C@@H](Cc1c[nH]c2ccccc12)C(=O)N[C@@H](CCCN=C(N)N)C(=O)N[C@@H](CCCCN)C(=O)N[C@@H](Cc1ccc(O)cc1)C(N)=O` [KRFKKWYKAWRKKWRKY], the MIC came to 2 µM (≈ 4.97 µg/mL) in test [34]; 2 µM (≈ 4.97 µg/mL) in [35]; 1 µM (≈ 2.49 µg/mL) in test [36]; 2 µM (≈ 4.97 µg/mL) in test [37]; 2 µM (≈ 4.97 µg/mL) in test [38]; 4 µM (≈ 9.94 µg/mL) in test [39]. In addition, the MIC turned out to be 4 µM (≈ 9.94 µg/mL) in test [40], 4 µM (≈ 9.94 µg/mL) in test [41], 2 µM (≈ 4.97 µg/mL) in test [42] and 2 µM (≈ 4.97 µg/mL) in test [43].

Take `CC(C)C[C@H](NC(=O)[C@H](CC(C)C)NC(=O)[C@H](CC(C)C)NC(=O)[C@@H](N)CC(C)C)C(=O)N[C@@H](CCCN=C(N)N)C(=O)N[C@@H](CCCN=C(N)N)C(=O)N[C@@H](CCCN=C(N)N)C(=O)N[C@@H](CCCN=C(N)N)C(=O)O` [LLLLRRRR]: the MIC is not below 117 µM in test [44] and more than 117 µM in [45].

`CC[C@H](C)[C@H](NC(=O)CNC(=O)[C@@H](N)Cc1ccc(O)cc1)C(=O)N[C@@H](Cc1cnc[nH]1)C(=O)N[C@H](C(=O)N[C@@H](Cc1cnc[nH]1)C(N)=O)[C@@H](C)O` [YGIHTH]: the MIC in [46], in test [24], in [47], in test [48], in test [49] and in [50] was not below 50 µM in each case.

The values are drawn from DBAASP.
